Experimental data: patent EP3406693B1, “FREEZER OIL FOR R32 REFRIGERANT AND COMPOSITION COMPRISING SAME” (NOF Corporation, priority 2016, dated 2017)

Legend:
Assay type in all cases: physicochemical
[1] = Two-layer separation temperature of ester A1 to A8 and R32 refrigerant; conditions: ester 2 g + R32 refrigerant 6 g, range -60°C to +40°C
Experimental: Using the aforementioned ester A1 to ester A8 as a refrigerating machine oil, a two-layer separation temperature of ester A1 to ester A8 and R32 refrigerant was measured as follows. To be specific, any of ester A1 to ester A8 (2 g) and R32 refrigerant (6 g) were sealed in a pressure-resistant glass tube and cooled from 40°C at a rate of 1°C/min by using an ethanol bath containing dry ice. The temperature at which ester and R32 refrigerant was separated in two layers was measured within the range of -60°C to +40°C by visual observation. One with a two-layer separation temperature of +40°C or above was evaluated as ×, +40°C to -10°C as ○, and - 10°C or below as ⊙.

Pour point (JIS K2269) = assay: Pour point (JIS K2269)
Experimental: According to JIS K2269, the pour point of ester A1 and the like was measured.

Acid number (JIS C2101) = assay: Acid number (JIS C2101)
Experimental: According to JIS C2101, the acid number of ester A1 and the like was measured.

[2] = Cloud point of additive in 1,1,1,3,3-pentafluorobutane/ethyl acetate (JIS 2269); conditions: 10 mass % in 1,1,1,3,3-pentafluorobutane/ethyl acetate 75/25 (mass ratio)
Experimental: As the aforementioned additive, any can be used as long as it has a cloud point of not less than -30°C when measured under the aforementioned conditions. Only one kind of the aforementioned additive may be used or two or more kinds thereof may be used in combination. […] The cloud point of the aforementioned additive as measured under the above-mentioned conditions is preferably not less than -20°C, more preferably not less than -15°C. The cloud point can be measured according to JIS 2269 "Testing Methods for Pour Point and Cloud Point of Crude Oil and Petroleum Products".
The cloud point when the additive (triphenyl phosphate and glycerol monooleate) used in the production of the below-mentioned refrigerating machine oil composition was dissolved at a concentration of 10 mass % in a mixed solvent of 1,1,1,3,3-pentafluorobutane and ethyl acetate at a mass ratio (1,1,1,3,3-pentafluorobutane/ethyl acetate) of 75/25 was measured according to JIS 2269. The cloud point of triphenyl phosphate measured under these conditions was -3°C and the cloud point of glycerol monooleate was 25°C.

Row | Compound | two-layer separation temperature ([1]; cooled from 40°C at 1°C/min, visual) [°C] | two-layer separation temperature (evaluation) [1] | pour point (Pour point (JIS K2269)) [°C] | acid number (Acid number (JIS C2101)) | cloud point [2] [°C]
1 | CCCCOC(=O)CC(O)(CC(=O)OCCCC)C(=O)OCCCC [ester A6] | ≤ -60 | ⊙ (- 10 °C or below as ⊙) | -50 | 0.1 or below mgKOH/g | –
2 | CCCCCCCC/C=C\CCCCCCCC(=O)OCC(O)CO (stereo not drawn) [glycerol monooleate] | – | – | – | – | 25
3 | O=P(Oc1ccccc1)(Oc1ccccc1)Oc1ccccc1 [triphenyl phosphate] | – | – | – | – | -3
